# Test results reported in article PMC12466757, “1,5-Diarylidene-4-Piperidones as Promising Antifungal Candidates Against Cryptococcus neoformans” (Antibiotics, 2025).
# How the values were obtained:
# [1] = tested on: Cryptococcus neoformans (DSM11959); experiment: MIC assay against C. neoformans; assay type: cell-based; settings: 35 °C, 24–48 h
# [2] = tested on: Candida albicans (DSM 10697); experiment: MIC assay, pathogenic yeast C. albicans; assay type: cell-based; settings: DSM10697, 35 °C, 24–48 h
# [3] = tested on: Candida glabrata (DSM 11226); experiment: MIC assay, pathogenic yeast C. glabrata; assay type: cell-based; settings: Nakaseomyces glabratus, DSM11226, 35 °C, 24–48 h
# Magnaporthe oryzae = experiment: microbe, parasite or virus in culture; assay type: cell-based; settings: Pyricularia oryzae, read-out: MIC M. oryzae
# [4] = tested on: Penicillium verrucosum (DSM 12639); experiment: MIC assay, filamentous fungus P. verrucosum; assay type: cell-based; settings: DSM12639, DSM 12639, plant pathogen, 25 °C, 48–72 h
# [5] = tested on: Colletotrichum graminicola (DSM 63127); experiment: MIC assay, filamentous fungus C. graminicola; assay type: cell-based; settings: DSM63127, DSM 63127, plant pathogen, 25 °C, 48–72 h
# [6] = tested on: Trichophyton rubrum (DSM16111); experiment: MIC assay, filamentous fungus T. rubrum; assay type: cell-based; settings: DSM16111, human pathogen, 35 °C, 24–48 h
# [7] = tested on: Fusarium graminearum (DSM 1095); experiment: microbe, parasite or virus in culture; assay type: cell-based; settings: DSM1095, read-out: MIC F. graminearum
# [8] = tested on: Candida auris (DSM 21092); experiment: MIC assay, pathogenic yeast C. auris; assay type: cell-based; settings: Candidozyma auris, DSM21092, 35 °C, 24–48 h
# [9] = tested on: Microdochium bolleyi (DSM 62073); experiment: MIC assay, filamentous fungus M. bolleyi; assay type: cell-based; settings: 48–72 h
# [10] = tested on: Candida tropicalis (DSM 9419); experiment: MIC assay, pathogenic yeast C. tropicalis; assay type: cell-based; settings: DSM9419, 35 °C, 24–48 h
# A. fumigatus (DSM 819) = experiment: MIC assay, filamentous fungus A. fumigatus; assay type: cell-based; settings: Aspergillus fumigatus, DSM819; DSM 819, human pathogen; 35 °C, 24–48 h
# in vitro [11] = settings: human, Caco-2
# [12] = tested on: Aspergillus flavus (DSM 1959); experiment: MIC assay, filamentous fungus A. flavus; assay type: cell-based; settings: DSM1959, DSM 1959, plant pathogen, 25 °C, 48–72 h
# [13] = Cytotoxicity, resazurin cell viability assay, Caco-2; settings: human
# [14] = Cytotoxicity, resazurin cell viability assay, HaCaT; settings: human
# [15] = Cytotoxicity, resazurin cell viability assay, BEAS-2B; settings: human
# [16] = Cytotoxicity, resazurin cell viability assay, HepG2; settings: human
# [17] = Cytotoxicity, resazurin cell viability assay, A498; settings: human
# [18] = tested on: various human cells, i.e., A498, BEAS-2B, Caco-2, HaCaT, and HepG2
# [19] = tested on: Staphylococcus aureus (ATCC 6538); experiment: Antibacterial liquid MIC determination, S. aureus; assay type: cell-based; settings: ATCC6538, Gram-positive
# [20] = tested on: Enterobacter cloacae (DSM 30054); experiment: Antibacterial liquid MIC determination, E. cloacae; assay type: cell-based; settings: DSM30054, Gram-negative
# [21] = tested on: Acinetobacter baumannii (DSM 30007); experiment: Antibacterial liquid MIC determination, A. baumannii; assay type: cell-based; settings: DSM30007, Gram-negative
# in vitro [22] = settings: human
# in vitro [23] = settings: human; remark: listed apart in the source
# in vitro [24] = settings: human; remark: listed apart in the source
# in vitro [25] = settings: human; remark: listed apart in the source
# in vitro [26] = settings: human; remark: listed apart in the source
# [27] = Cryptococcus neoformans, DSM11959, C. neoformans DSM 11959, lowest concentration totally inhibiting growth
# [28] = DSM62073, DSM 62073, plant pathogen, 25 °C
# [29] = C. neoformans DSM 11959, lowest concentration totally inhibiting growth
compound,measurement,setting,value
CCCCOc1ccc(/C=C2/C(=O)/C(=C/c3ccc(OCCCC)cc3OCCCC)C3CCC2N3C)c(OCCCC)c1 [2n],MIC,[1]; [27],> 250 µM
CCCCOc1ccc(/C=C2\CN(CC)C/C(=C\c3ccc(OCCCC)c(OCCCC)c3OCCCC)C2=O)c(OCCCC)c1OCCCC [2m],MIC,[2],125 µM
same,MIC,[3],15.6 µM
same,MIC,Magnaporthe oryzae,62.5 µM
same,MIC,[4],> 250 µM
same,MIC,[5],> 250 µM
same,MIC,[6],31.2 µM
same,MIC,"[1]; Cryptococcus neoformans, DSM11959, C. neoformans DSM 11959, […]",62.5 µM
same,MIC,[7],> 250 µM
same,MIC,[8],31.2 µM
same,MIC,[9]; [28],> 250 µM
same,MIC,[10],250 µM
same,MIC,A. fumigatus (DSM 819),250 µM
same,CC50 at 48 h,in vitro [11],687 µM
same,MIC,[12],> 250 µM
CCN1C/C(=C\c2ccc(C#N)cc2)C(=O)/C(=C/c2ccc(C#N)cc2)C1 [1c],MIC,[1]; [27],250 µM
same,CC50 at 48 h,in vitro [11],70.3 µM
CCCCOc1ccc(/C=C2\CN(C(=O)OCc3ccccc3)C/C(=C\c3ccc(OCCCC)cc3OCCCC)C2=O)c(OCCCC)c1 [7h],MIC,[1]; [29],>250 µM
same,MIC,[1]; [27],> 250 µM
"CCN1C/C(=C\c2ccc(C)cc2)C(=O)/C(=C/c2ccc(C)cc2)C1 [1b, 1-ethyl-3,5-bis((E)-4-methylbenzylidene)piperidin-4-one]",MIC,[1]; [27],250 µM
same,CC50 at 48 h,in vitro [11],86.2 µM
"CCN1C/C(=C\c2ccc(OC)cc2OC)C(=O)/C(=C/c2ccc(OC)cc2OC)C1 [2a, 3,5-bis((E)-2,4-dimethoxybenzylidene)-1-ethylpiperidin-4-one]",MIC,[1]; [29],>250 µM
same,MIC,[1]; [27],> 250 µM
CCCCOc1ccc(/C=C2\CC(C(C)(C)C)C/C(=C\c3ccc(OCCCC)cc3OCCCC)C2=O)c(OCCCC)c1 (stereo not shown) [10h],MIC,[1]; [27],> 250 µM
CCN1C/C(=C\c2ccc([N+](=O)[O-])cc2)C(=O)/C(=C/c2ccc([N+](=O)[O-])cc2)C1 [1d],CC50 at 48 h,[13],95.4 µM
same,CC50 at 48 h,[14],163 µM
same,CC50 at 48 h,[15],364 µM
same,MIC,[1]; [27],250 µM
same,CC50 at 48 h,[16],314 µM
same,CC50 at 48 h,[17],486 µM
CCCCOc1ccc(/C=C2\CCC/C(=C\c3ccc(OCCCC)cc3OCCCC)C2=O)c(OCCCC)c1 [8h],MIC,[1]; [29],>250 µM
same,MIC,[1]; [27],> 250 µM
CCN1C/C(=C\c2ccccc2F)C(=O)/C(=C/c2ccccc2F)C1 [2j],MIC,[1]; [27],250 µM
same,CC50 at 48 h,in vitro [11],68.3 µM
"CCN1C/C(=C\c2ccc(OC)cc2)C(=O)/C(=C/c2ccc(OC)cc2)C1 [1a, 1-ethyl-3,5-bis((E)-4-methoxybenzylidene)piperidin-4-one]",CC50 (range depending on the cell model),[18],64.9 to >1000
same,MIC,[1]; [27],125 µM
same,CC50 at 48 h,in vitro [11],314 µM
CCCCOc1ccc(/C=C2\CN(Cc3ccccc3)C/C(=C\c3ccc(OCCCC)c(OCCCC)c3)C2=O)cc1OCCCC [3iso-h],MIC,[2],250 µM
same,MIC,[3],62.5 µM
same,MIC,Magnaporthe oryzae,15.6 µM
same,MIC,[4],125 µM
same,MIC,[5],125 µM
same,MIC,[6],125 µM
same,MIC,[1]; [27],62.5 µM
same,MIC,[7],> 250 µM
same,MIC,[8],31.2 µM
same,MIC,[9]; [28],62.5 µM
same,MIC,[10],125 µM
same,MIC,A. fumigatus (DSM 819),125 µM
same,CC50 at 48 h,in vitro [11],> 1000 µM
same,MIC,[12],> 250 µM
CCCCOc1ccc(/C=C2\CN(C(=O)OC(C)(C)C)C/C(=C\c3ccc(OCCCC)cc3OCCCC)C2=O)c(OCCCC)c1 [5h],MIC,[1]; [29],>250 µM
same,MIC,[1]; [27],> 250 µM
CCN1C/C(=C\c2cnc3ccccc3c2)C(=O)/C(=C/c2cnc3ccccc3c2)C1 [2l],MIC,[1]; [27],250 µM
same,MIC,[19],250 µM
same,CC50 at 48 h,in vitro [11],30 µM
O=C1/C(=C/c2ccc[nH]2)CN(Cc2ccccc2)C/C1=C\c1ccc[nH]1 [3j],MIC,[1]; [27],62.5 µM
same,MIC,[19],250 µM
same,CC50 at 48 h,in vitro [11],26.1 µM
CCN1C/C(=C\c2ccc3c(c2)OCO3)C(=O)/C(=C/c2ccc3c(c2)OCO3)C1 [2i],MIC,[1]; [27],250 µM
same,CC50 at 48 h,in vitro [11],152 µM
CCCCOc1ccc(/C=C2\CN(Cc3ccccc3)C/C(=C\c3ccc(OCCCC)cc3)C2=O)cc1 [2o],CC50 (range depending on the cell model),[18],64.9 to >1000
same,MIC,[1]; [27],125 µM
same,CC50 at 48 h,in vitro [11],455 µM
CCN1C/C(=C\c2ccc[nH]2)C(=O)/C(=C/c2ccc[nH]2)C1 [2k],MIC,[20],250 µM
same,MIC,[1]; [27],250 µM
same,MIC,[21],250 µM
COc1ccc(/C=C2\CN(Cc3ccccc3)C/C(=C\c3ccc(OC)cc3OC)C2=O)c(OC)c1 [3a],MIC,[1]; [29],>250 µM
same,MIC,[1]; [27],> 250 µM
CCCCOc1ccc(/C=C2\CN(S(C)(=O)=O)C/C(=C\c3ccc(OCCCC)cc3OCCCC)C2=O)c(OCCCC)c1 [6h],MIC,[1]; [29],>250 µM
same,MIC,[1]; [27],> 250 µM
CCN1C/C(=C\c2ccc(Cl)cc2)C(=O)/C(=C/c2ccc(Cl)cc2)C1 [1e],MIC,[1]; [27],250 µM
same,CC50 at 48 h,in vitro [11],98.6 µM
CCCCOc1ccc(/C=C2\CC(C)C/C(=C\c3ccc(OCCCC)cc3OCCCC)C2=O)c(OCCCC)c1 (stereo not shown) [9h],MIC,[1]; [27],> 250 µM
CCCCOc1ccc(/C=C2\CN(Cc3ccccc3)C/C(=C\c3ccc(OCCCC)cc3OCCCC)C2=O)c(OCCCC)c1 [3h],MIC,[2],62.5 µM
same,MIC,[3],7.8 µM
same,MIC,Magnaporthe oryzae,7.8 µM
same,MIC,[4],62.5 µM
same,MIC,[5],250 µM
same,MIC,[6],7.8 µM
same,MIC,[1]; [27],7.8 µM
same,MIC,[7],125 µM
same,MIC,[8],7.8 µM
same,MIC,"[9]; DSM62073, 25 °C",7.8 µM
same,MIC,[9]; [28],31.2 µM
same,MIC,[10],125 µM
same,MIC,A. fumigatus (DSM 819),31.2 µM
same,CC50 at 48 h,in vitro [11],629 µM
same,MIC,[12],31.2 µM
"CCCCOc1ccc(/C=C2\CN(CC)C/C(=C\c3ccc(OCCCC)cc3OCCCC)C2=O)c(OCCCC)c1 [2h, 3,5-bis((E)-2,4-dibutoxybenzylidene) -1-ethylpiperidin-4-one]",MIC,[2],250 µM
same,MIC,[3],31.2 µM
same,MIC,Magnaporthe oryzae,15.6 µM
same,MIC,[4],125 µM
same,MIC,[5],> 250 µM
same,MIC,[6],62.5 µM
same,MIC,[1]; [27],31.2 µM
same,MIC,[7],> 250 µM
same,MIC,[8],31.2 µM
same,MIC,[9]; [28],62.5 µM
same,MIC,[10],250 µM
same,MIC,A. fumigatus (DSM 819),125 µM
same,CC50 at 48 h,in vitro [11],697 µM
same,MIC,[12],> 250 µM
"OC(Cn1cncn1)(Cn1cncn1)c1ccc(F)cc1F [Fluconazole, reference compound]",MIC,[2],6.25 µM
same,CC50 at 48 h,[13],977 µM
same,CC50 (range depending on the cell model),[18],841.2 to >1000
same,MIC,[3],250 µM
same,MIC,Magnaporthe oryzae,12.5 µM
same,MIC,[4],> 1000 µM
same,CC50 at 48 h,[14]; HaCaT skin cells,841 µM
same,MIC,[5],50 µM
same,MIC,[6],> 1000 µM
same,CC50 at 48 h,[15]; BEAS-2B airway epithelial cells,942 µM
same,MIC,[1]; [27],25 µM
same,MIC,[7],> 1000 µM
same,MIC,[8],500 µM
same,MIC,[9]; [28],> 1000 µM
same,MIC,[10],1000 µM
same,CC50 at 48 h,[16]; HepG2 liver cells,> 1000 µM
same,CC50 at 48 h,[17]; A498 kidney cells,994 µM
same,MIC,A. fumigatus (DSM 819),> 1000 µM
same,MIC,[12],> 1000 µM
C=CCOc1ccc(/C=C2\CN(CC)C/C(=C\c3ccc(OCC=C)cc3OCC=C)C2=O)c(OCC=C)c1 [2g],MIC,[1]; [29],>250 µM
same,MIC,[1]; [27],> 250 µM
CCN1C/C(=C\c2ccc(C(F)(F)F)cc2)C(=O)/C(=C/c2ccc(C(F)(F)F)cc2)C1 [1f],MIC,[1]; [27],250 µM
same,CC50 at 48 h,in vitro [11],47 µM
CCCCOc1ccc(/C=C2\CN(C3CC3)C/C(=C\c3ccc(OCCCC)cc3OCCCC)C2=O)c(OCCCC)c1 [4h],CC50 at 48 h,in vitro [22],> 1 mM
same,CC50 at 48 h,in vitro [23],> 1 mM
same,MIC,[1]; [27],250 µM
same,CC50 at 48 h,in vitro [24],> 1 mM
same,CC50 at 48 h,in vitro [25],> 1 mM
same,CC50 at 48 h,in vitro [26],> 1 mM
same,CC50 at 48 h,in vitro [11],> 1000 µM
